# Measured values reported in patent US8808716B2, “Topical foam composition” (Stiefel Research Australia Pty Ltd, priority 2009, dated 2014).
# Assay: accelerated stability study (HPLC) of compatibility of tazarotene with surfactants
# Type: physicochemical
# Conditions: 50° C.; in hydrophilic ethoxylated fatty alcohol ether surfactant such as Ceteareth-12, in contrast to various lipophilic surfactants
# Method: An accelerated stability study (using HPLC) was conducted at 50° C. to measure the compatibility of tazarotene with various surfactants.
smiles,measurement,value
CCOC(=O)c1ccc(C#Cc2ccc3c(c2)C(C)(C)CCS3)nc1 [tazarotene],tazarotene stability (compatibility with surfactant),most stable
